Data set [1] has as its system MSSA. Put plainly: MBC by plating. It counts as cell-based, S. aureus. Conditions: against MSSA. The protocol:
(§1) All cationic antibacterial compounds and control (vancomycin) were assayed in a micro-dilution broth format. Stock solutions were made by serially diluting the compounds using autoclaved Millipore water or broth media. The antibacterial activity of the compounds was determined against Methicillin sensitive S. aureus (MSSA), Methicillin resistant S. aureus (MRSA), vancomycin sensitive Enterococcus faecium (VSE), vancomycin resistant Enterococcus faecium (VRE), and E. coli. Bacteria, to be tested, were grown for about 10 h in the suitable media, MSSA and MRSA were grown in Yeast-dextrose broth (about 1 g of beef extract, about 2 g of yeast extract, about 5 g of peptone and about 5 g of NaCl in about 1000 mL of sterile distilled water (pH-7)). For solid media, about 5% agar was used along with above mentioned composition. E. coli was cultured in Luria Bertani broth (about 10 g of tryptone, about 5 g of yeast extract, and about 10 g of NaCl in 1000 mL of sterile distilled water, pH −7). VSE and VRE were cultured in Brain Heart Infusion broth (Himedia). The bacterial samples were freeze dried and stored at about −80° C. About 5 μl of these stocks were added to about 3 ml of the nutrient broth and the culture was grown for about 6 h at about 37° C. prior to the experiments. This 6 h grown culture gives about 10^9 cfu/mL for MSSA and MRSA, while it was about 10^8 cfu/mL for E. coli, 10^9 cfu/mL for both VSE and VRE and this was determined by spread plating method. The 6 h grown culture was diluted to give effective cell concentration of about 10^5 cfu/mL which was then used for determining MIC.
(§2) Compounds were serially diluted, in sterile water (2 fold dilution is employed) in a way that the working concentration was about 10 μM for MSSA MRSA, and VSE while for VRE and E. coli it was about 100 μM. About 50 μL of these serial dilutions were added to the wells of 96 well plate followed by the addition of about 150 μL of bacterial solution. The plates were then incubated at about 37° C., 150 rpm in the incubator and O.D at 600 nm was recorded at an interval of about 10 h and about 24 h using TECAN (Infinite series, M200 pro) Plate Reader. Each concentration had triplicate values and the whole experiment was done at least twice and the MIC value was determined by taking the average of triplicate O. D. values for each concentration and plotting it against concentration. The data was then subjected to sigmoidal fitting. From the curve the MIC value was determined, as the point in the curve where the O.D. was similar to that of control having no bacteria.
(§3) MBC values were determined by plating about 50 μl of the solution and later counting the colonies after their development.

The subject of data set [2] is Methicillin resistant S. aureus (ATCC 33591). Put plainly: microbe, parasite or virus in culture. The format is cell-based. The protocol: For solid media, about 5% agar was used along with above mentioned composition. […] VSE and VRE were cultured in Brain Heart Infusion broth (Himedia). […] The 6 h grown culture was diluted to give effective cell concentration of about 10^5 cfu/mL which was then used for determining MIC.
About 50 μL of these serial dilutions were added to the wells of 96 well plate followed by the addition of about 150 μL of bacterial solution. […] Each concentration had triplicate values and the whole experiment was done at least twice and the MIC value was determined by taking the average of triplicate O. D. values for each concentration and plotting it against concentration. The data was then subjected to sigmoidal fitting.

The subject of data set [3] is Vancomycin restant S. aureus (Clinical isolate, MMC-20, VanA & VanB). Put plainly: MIC, broth dilution method in Mueller-Hinton broth. The format is cell-based. Conditions: VRSA. The protocol:
For vancomycin resistant staphylococcus aureus (VRSA; clinical isolate MMC-20), the MIC of compounds was determined by broth dilution method using Mueller-Hinton broth (MHB), as recommended by the National Committee for Clinical Laboratory Standards. About 5×10^4 bacterial cells in MHB culture were treated with different concentrations of compounds, and shaken for 16 h at 37° C. The minimum concentration at which there was no visible turbidity was taken as the MIC of that compound.
In general terms: In broth dilution the organism is exposed to a series of concentrations in liquid medium.

For data set [4], the system named is Vancomycin sensitive E. faecium (ATCC 19634). In words: MIC, micro-dilution broth. It counts as cell-based. The protocol:
as §1, §2

Data set [5] has as its system Methicillin sensitive S. aureus (MTCC 737). Put plainly: MIC, micro-dilution broth. It counts as cell-based. How it is done:
as §1, §2

The test system of data set [6] is Vancomycin resistant E. faecium (VanA, ATCC 51559). Put plainly: MIC, micro-dilution broth. The format is cell-based. How it is done: as §1, §2
Data set [7] concerns E. coli. Put plainly: MIC, micro-dilution broth. The format is cell-based. The protocol:
as §1, §2

For data set [8], the system named is E. coli. In words: MBC by plating. It counts as cell-based. How it is done: as §1, §2, §3
Another data set can be described thus: Cytotoxicity assay (MTT). The format is cell-based. Conditions: human, HeLa cells (cervical cancer cells), about 24 h. How it is done: Cytotoxity of compounds 4 and 7 was determined against HeLa cell line following well known MTT assay. Cells were grown in DMEM at about 37° C. in a humidified-air atmosphere (about 5% CO2/95% air) in DMEM complete medium, supplemented with about 10% heat inactivated Fetal Bovine Serum and about 100 units/mL penicillin G, about 100 µg/mL streptomycin. Cells were seeded into 96 well plate and kept under the above mentioned conditions till they attained about 80% confluency. Compounds were serially diluted, in sterile water (2 fold dilution is employed) in a way that the working concentration was 100 μM. 50 μL of these dilutions were added to the cells and the volume was made up to 200 μL using DMEM medium. Cells were kept under observation for about 24 h. Later the medium was removed, cells were washed thoroughly with PBS and about 100 μL of MTT solution (about 5 mg/mL) was added to the wells. After about 3 h the MTT was removed, cells were lysed using DMSO and the plate was read at about 570 nm. One containing no compound (untreated cell) and other with about 10 vol % Triton-X 100 solution were also used. Percentage of cell survival was calculated using the formula: (Atreated cells−Atriton-X cells)/(Auntreated cell−Atriton-X cells)×100
A plot of % of survival against concentration of compound was plotted using Origin Pro software.

In data set [9] the test system is MRSA. Put plainly: MBC by plating. The format is cell-based, S. aureus. Conditions: Staphylococcus aureus; against MRSA. The protocol: as §1, §2, §3
For data set [10], the system named is Human Red Blood Cells (RBC). In words: Hemolytic assay. Particulars: Erythrocyte, 1 h, about one hour at about 37° C., read-out: EC50 (hemolysis). It counts as cell-based. The protocol: Fresh human blood was collected under aseptic conditions in heparinised vacutainers. vancomycin derivatives are serially diluted, in sterile water (about 2 fold dilution is employed) in a way that the working concentration is about 100 μM. Heparinised blood was centrifuged down at about 3500 rpm for about 5 min in order to separate Red Blood Cells and blood plasma. RBC's are then washed couple of times with PBS pH-7.4 and suspended in PBS such that the final concentration of RBC was about 5 vol %. About 150 μL of this is mixed with about 50 μL of serially diluted compound in 96 well plate. The plate was then incubated at about 37° C. for about one hour. Later, the plate was centrifuged down at about 3500 rpm for about 5 min. The lysed RBC releases haemoglobin which was present in the supernatant. The supernatant thus was pipetted out into another fresh 96 well plate and the absorbance was measured at about 540 nm.
Percentage of hemolysis was determined as (A−A0)/(Atotal−A0)×100, where A is the absorbance of the test well, A0 the absorbance of solution without compound, and Atotal the absorbance of 100% hemolysis wells (with Triton X-100), all at 540 nm.

Data set [11] deals with MSSA. In words: Cytoplasmic membrane depolarization assay (diSC3(5)). The format is cell-based, S. aureus. Conditions: concentration as high as 40 μM. The protocol: Midlog phase bacterial cells were harvested, washed with about 5 mM HEPES and about 5 mM glucose and resuspended in about 5 mM glucose, about 5 mM HEPES buffer and about 100 mM KCl solution in 1:1:1 ratio (about 10^8 cfu/ml). Measurements were made in a cuvette containing about 2 ml of bacterial suspension and about 2 μM diSC3(5). The fluorescence of the dye was monitored for about 10 min (MSSA) to about 20 min (E. coli) at R.T. spectrofluorometer at excitation wavelength of about 622 nm and emission wavelength of about 670 nm. Dye uptake, and resultant self quenching, was modulated by the membrane potential. After reaching the maximum uptake of the dye by bacteria, which was indicated by a minimum in dye fluorescence, (after about 10 min for S. aureus and about 20 min for E. coli) compounds (4 and 7) and control were added to the cells, and the decrease in potential was monitored by the increase in fluorescence for further about 10 min.

The test system of data set [12] is MRSA. Put plainly: Time-kill assay. The format is cell-based, S. aureus. Particulars: 1×MIC, 6×MIC, 12×MIC, 0-3 h. The protocol: The bactericidal activity was assessed by the kinetics or the rate at which it affects the killing action of the compound. Briefly MRSA grown in Yeast-Dextrose broth. […] Bacterial suspension containing specified concentrations of the compound along with negative control (which contains only 0.9% Saline) was incubated at 37° C. with shaking. Aliquots (20 μl) were removed from the cultures at 0, 1, 2 and 3 h and were serially diluted 10-fold in 0.9% saline and plated onto sterile Yeast-Dextrose agar medium. The number of viable cells was determined by plating the 10-fold serial dilution of each sample onto Yeast-dextrose agar medium. Plates were then incubated for 24 h at 37° C., CFU was counted and the total bacterial log10 CFU/ml was determined.

In brackets after ≈: the same amount, converted by molar mass. Where only a bound is given, the exact number is not on record here.

In the case of `CN[C@H](CC(C)C)C(=O)N[C@H]1C(=O)N[C@@H](CC(N)=O)C(=O)N[C@H]2C(=O)N[C@H]3C(=O)N[C@H](C(=O)N[C@H](C(=O)NCCCN(C)C)c4cc(O)cc(O)c4-c4cc3ccc4O)[C@H](O)c3ccc(c(Cl)c3)Oc3cc2cc(c3O[C@@H]2O[C@H](CO)[C@@H](O)[C@H](O)[C@H]2O[C@H]2C[C@](C)(N)[C@H](O)[C@H](C)O2)Oc2ccc(cc2Cl)[C@H]1O` [Compound 1], the MBC (commonly the smallest concentration meeting the test's criterion for killing) against MSSA [1] was 1.25 µM (≈ 1.92 µg/mL); against E. coli [8] (against E. coli), 50 µM (≈ 76.7 µg/mL). For the same molecule, the MIC is 0.61 µM (≈ 0.935 µg/mL) in [2] (MRSA, ATCC 33591); 0.53 µM (≈ 0.813 µg/mL) in [3] (clinical isolate MMC-20); 0.63 µM (≈ 0.966 µg/mL) in data set [4] (VSE, E. faecium ATCC 19634); 0.62 µM (≈ 0.951 µg/mL) in [5] (MSSA, S. aureus MTCC 737); greater than 100 µM in data set [6] (VRE, E. faecium VanA ATCC 51559); 50 µM (≈ 76.7 µg/mL) in the data set with E. coli [7] (against E. coli).
For the molecule `CCCCCCCCCCCCCC[N+](C)(C)CCCNC(C)=O` [Compound 14, N′-Acetyl N-tetradecyl N,N dimethyl 1,3 propanediamine], in the data set on E. coli [7] (against E. coli), the MIC was greater than 100 µM. Also, the MBC against E. coli [8] (against E. coli) was greater than 100 µM.
As to `CN[C@H](CC(C)C)C(=O)N[C@H]1C(=O)N[C@@H](CC(N)=O)C(=O)N[C@H]2C(=O)N[C@H]3C(=O)N[C@H](C(=O)N[C@H](C(=O)O)c4cc(O)cc(O)c4-c4cc3ccc4O)[C@H](O)c3ccc(c(Cl)c3)Oc3cc2cc(c3O[C@@H]2O[C@H](CO)[C@@H](O)[C@H](O)[C@H]2O[C@H]2C[C@](C)(N)[C@H](O)[C@H](C)O2)Oc2ccc(cc2Cl)[C@H]1O` [Vancomycin], the EC50 (commonly the concentration that produces a half-maximal response) at 24 h in the data set “Cytotoxicity assay (MTT)” is greater than 100 µM. The MBC with MRSA [9] was 2.5 µM (≈ 3.62 µg/mL); in the data set on MSSA [1] (Staphylococcus aureus, MSSA) it was roughly 2.5 µM (≈ 3.62 µg/mL); in the data set on MSSA [1] (listed as Control), 2.5 µM (≈ 3.62 µg/mL); in the data set on E. coli [8] (Escherichia coli), greater than 100 µM; against E. coli [8] (against E. coli, listed as Control), greater than 100 µM. Also, the EC50 in data set [10] is greater than 100 µM. For the same molecule, the membrane depolarization result with MSSA [11] was “remained ineffective”. The MIC in data set [2] (Staphylococcus aureus, ATCC 33591 / MRSA) is 0.63 µM (≈ 0.913 µg/mL); in data set [3] (Staphylococcus aureus) it was greater than 86 µM; in data set [4] (Enterococcus faecium, ATCC19634), 0.6 µM (≈ 0.87 µg/mL); in data set [5] (Staphylococcus aureus, MSSA / MTCC737), 0.63 µM (≈ 0.913 µg/mL); in [6] (Enterococcus faecium, ATCC 51559 / VRE), greater than 100 µM; against E. coli [7] (Escherichia coli) it was 80 to 100 µM (≈ 116 to 145 µg/mL). Further, in the data set with MRSA [12], the “killing kinetics (in words)” value is reported as “relatively slow killing or bacteriostatic effect”.
